{"source": "patent US7229826B2", "about": "“Process for ex vivo formation of mammalian bone and uses thereof” (The Regents of the University of Michigan, priority 1999, dated 2007)", "type_in_all_cases": "cell-based", "key": {"[1]": {"system": "human osteogenic cells (MG63, HBPC, primary osteoblasts)", "assay": "Inhibition of cell condensation (bone cell spheroid and microspicule formation)", "conditions": "EGTA 0.5 mM; puromycin 5 μM; spheroid-forming conditions with TGF-β1", "experimental": "Inhibition of Cell Condensation. Cells were cultured in serum-free media under conditions that establish bone cell spheroids (as described above) in the presence of neutralizing antibodies to α2, α3, and/or β1 integrins, at 10 μg/ml. Isotype-specific inappropriate antibodies served as negative controls. Antibodies were added every second day over a seven-day culture period. EGTA (0.5 mM) was also used inhibition of cell aggregation, as was puromycin (5 μM)."}, "[2]": {"system": "primary osteoblasts isolated from human bone", "assay": "Collagen synthesis by 3H-proline incorporation, delayed reduction electrophoresis", "conditions": "densitometry", "experimental": "Collagen Synthesis. At the times indicated, bone cell-spheroids were washed with prolene-free DMEM containing 1% ITS, and incubated for 12 hours in the presence of ITS^+ and 100 μCi/ml (^3H) Proline (Amersham). Cells and medium were harvested, and cell lysates were made. Protein content was estimated by the BCA method (Smith, 1985), using a kit from Pierce (Rockford, Ill.). The cell lysates were lyophilized and extracted overnight at 4° C. with 0.5M acetic acid containing 100 μg/ml pepsin (Sigma Chemical Co., St. Louis, Mo.). Samples were dried, dissolved in non-reducing SDS-gel buffer and analyzed on a 5% SDS-gel. The αl(1) and αl(111) components were resolved by delayed reduction electrophoresis (Sykes, 1976). The gels were treated with Amplify (Amersham, England), and the radiolabeled collagen visualized by autoradiography. The percentage of Type I collagen was determined using the following formula (Franceschi, 1988)."}, "[3]": {"system": "human osteogenic cells (MG63, HBPC, primary osteoblasts)", "assay": "TGF-β1-induced bone cell spheroid formation in serum-free culture", "conditions": "200 pM TGF-β1, serum-free, immediately following trypsinization", "experimental": "Culture of Osteogenic Cells and Cell Lines. Osteogenic cell lines such as human osteosarcoma cells (MG63) were cultured in RPMI 1640 (Gibco, Grand Island. N.Y.) containing 2 mM L-Glutamine, sodium pyruvate and 10% Fetal Calf Serun (FCS) (Hyclone Labs Inc., Logan, Utah). For bone cell spheroid formation, cells were grown to confluency, trypsinized, washed two times in RPMI, and immediately cultured in serum-free media containing 1% ITS+ (Collaborative Research Inc.) and 200 pM TGF-β1 (Collaborative). Unless otherwise noted, cells are plated at a density of about 10^3 to 10^6 cells/cm^2 in tissue culture dishes. Control cells were allowed to adhere to plastic for 3–4 hours in serum containing medium following trypsinization. This adherent cell layer was then washed twice with serum-free medium and cultured as above with or without TGF-β1.\nBone Cell-Spheroid Formation. In order to induce three-dimensional cell development (i.e., bone cell spheroids), cells were trypsinized as routinely performed for passage, the trypsin inactivated by serum addition, the cells washed three times, and immediately cultures in RPMI/ITS^+ (see above) containing 200 pM TGF-β1, Control cells were allowed to adhere to plastic for 3–4 hours in serum containing medium following trypsinization. This adherent cell layer was then washed twice with serum-free medium and cultured as above with or without TGF-β1."}, "[4]": {"system": "human osteogenic cells (MG63, HBPC, primary osteoblasts)", "assay": "Western analysis of bone protein expression in spheroids", "conditions": "each osteogenic cell type; versus serum-free cells in the absence of TGF-β1", "experimental": "Western Analysis. The procedure used was essentially that of Towbin (1979). Samples were run on a 10% SDS-PAGE. The electrophoretically resolved proteins were transferred to nitrocellulose (Schleicher & Schuell; Keene, N.H.) and the nonspecific binding sites blocked using 5% Skim milk in TBST (10 mM Tris, 0.15M NaCl, 0.05% Tween 20, pH 7.5). The nitrocellulose membrane was incubated with primary antibodies: anti-Osteonectin (ON), anti-alkaline phosphatase, (both generous gifts of Dr. Kenneth Mann, University of Vermont) or anti-Type I collagen (Collaborative); each at 10 μg/ml in TBST) for 1 hour at room temperature, washed with TBST and treated with the secondary antibody (anti-mouse IgG-HRP conjugated; Amersham) at a 1:1000 dilution in the same buffer. The HRP/anitbody-labeled proteins were visualized by enhanced chemilluminescence (Pierce)."}, "[5]": {"system": "murine LTBMC (unfractionated bone marrow)", "assay": "Murine long-term bone marrow culture (LTBMC) osteogenesis, von Kossa / Masson positive foci and microspicules", "source_text": "The inventors therefore established murine LTBMC and probed their capacity to express markers of osteogenesis. […] Additionally, they have developed a smaller culture volume system (dropping from 100 -mm tissue culture dishes to 35 mm ones) to allow better utilization of human osteoblasts. Using this modification on murine cells (which respond less robustly to TGF-β as a solitary cytokine), the inventors examined the role of IGF in modulating this process.\nEndothelial cells are important sources of cytokines for both hematopoietic and osteogenesis cells. An important regulator of endothelial cells, VEGF, is known to affect both endothelial cells, and bone cell development (although it is not clear if the latter is a direct effect)."}}, "note": "Entries after “also recorded” stand apart in the source; their conditions may differ.", "data": [{"molecule": "COc1ccc(C[C@H](N)C(=O)N[C@H]2[C@@H](O)[C@H](n3cnc4c(N(C)C)ncnc43)O[C@@H]2CO)cc1", "note": "[puromycin]", "values": [{"measurement": "spheroid formation (effect in words)", "setting": "[1]", "result": "completely blocked; also recorded: completely inhibited"}]}, {"molecule": "TGF-β1: multifunctional cytokine of the TGF-β family, osteogenic growth factor used at 200 pM (human) or 25 pM (murine)", "values": [{"measurement": "increase in collagen synthesis on TGF-β1-dependent spheroid formation", "setting": "[2]", "result": "two to three fold increase"}, {"measurement": "time to formation of three-dimensional spherical cellular condensates (cell spheroids)", "setting": "[3]", "result": "24 to 48", "unit": "h"}, {"measurement": "expression of osteonectin and alkaline phosphatase", "setting": "[4]", "result": "markedly increases"}, {"measurement": "capacity to drive murine osteogenesis (individually)", "setting": "[5]; TGF-b 25 pM, IGF 15 pM, each alone", "result": "little capacity"}]}, {"molecule": "VEGF", "values": [{"measurement": "increase in number of von Kossa cellular foci", "setting": "[5]; VEGF 10 ng/mL", "result": 2.5, "unit": "fold"}, {"measurement": "increase in number of collagen-positive and von Kossa-positive developmental foci per culture", "setting": "[5]; VEGF 10 ng/mL added to LTBMC", "result": "75–80%"}, {"measurement": "increase in number of microspicules per culture", "setting": "[5]; VEGF 10 ng/mL, over the first three weeks of culture", "result": "~5", "unit": "fold"}]}, {"molecule": "O=C(O)CN(CCOCCOCCN(CC(=O)O)CC(=O)O)CC(=O)O", "note": "[EGTA]", "values": [{"measurement": "spheroid formation (effect in words)", "setting": "[1]", "result": "completely inhibited"}]}]}
